Data: patent US8741889B2, “Method of treating non-small cell lung cancer and colon cancer with gamma-secretase inhibitor” (Hoffmann-La Roche Inc, priority 2008, dated 2014)

Key:
H460a NSCLC xenografts = test: Antitumor efficacy in H460a NSCLC xenografts in nude mice; type: in vivo
Description: Female nude mice (10/group), obtained from Charles River Laboratories (Wilmington, Mass.) were used when they were approximately 13-14 weeks old and weighed approximately 23-25 grams. The health of all animals was determined daily by gross observation of experimental animals and by the analyses of blood samples of sentinel animals that were housed on the shared shelf racks. All animals were allowed to acclimate and recover from any shipping related stress for a minimum of 72 hours prior to experimental use. Autoclaved water and irradiated food [5058-ms Pico chow (mouse) Purina, Richmond, Ind.] were provided ad libitum, and the animals were maintained on a 12-hour light and dark cycle. Cages, bedding and water bottles were autoclaved before use and were changed weekly. Lovo human colorectal, Calu-6 NSCLC, and HCT116 colorectal cells were purchased from ATCC (Manassas, Va.). […] NSCLC cells were a gift from Dr. Jack Roth, MD Anderson Medical Center, Houston, Tex. Lovo cells were cultured in F12K culture medium, Calu-6 and […] were grown in Dulbecco's Modified Essential Medium (DMEM), and HCT116 cells were grown in McCoy's 5A medium. All culture media were supplemented with 10% (v/v) FBS and 1% (v/v) […] L-glutamine. […] Mice implanted with Lovo and Calu-6 xenografts were randomized on day 19 post-implant, mice implanted with HCT116 xenografts were randomized on day 20, while mice implanted with […] xenografts were randomized on day 12 post implant. […] Treatment for the Lovo and Calu-6 tumor studies began on Oct. 11, 2006 (day 19 post tumor cell implant), for the HCT116 study began on Oct. 16, 2006 (day 20 post tumor cell implant), and for the […] study on Oct. 11, 2006 (12 days post tumor cell implant). […] For the Lovo and Calu-6 studies, 21 day dosing ended on day 40 post-tumor cell implant. For intermittent dosing, treatment ended on day 26, was reinitiated on day 40, and ended day 47. For the HCT116 study, 21 day dosing ended on day 42 post tumor cell implant. Intermittent dosing ended on day 27, was reinitiated on day 42, and ended day 49. For the […] study, 21 day dosing ended early on day 27 post tumor cell implant, whereas for intermittent dosing, treatment ended day 19, and was not reinitiated (due to lack of efficacy). Efficacy data was graphically represented as the mean tumor volume ±standard error of the mean (SEM). […] Statistical analysis was determined by the rank sum test and One Way Anova and a post-hoc Bonferroni t-test (SigmaStat, version 2.0, Jandel Scientific, San Francisco, Calif.). […]

[1] = mouse, in vivo, 10 mg/kg
Description: Treatment for the MiaPaca2 study began on Feb. 8, 2007 (day 17 post tumor implant), for AsPC1 on Mar. 23, 2007 (day 9 post tumor implant), and for the BxPC3 study on May 30, 2007 (day 8 post tumor implant). Oral vehicle or the Compound (1) suspension was dosed using a sterile 1 cc syringe and 18-gauge gavage needle (0.2 ml/animal) once daily (qd) for 21-28 days, or using an intermittent schedule (7 days on, 7 days off, 7 days on (7+/7−/7+), 7 days on, 7 days off (7+/7−), 3 days on, 4 days off (3+/4−), or 14 days on, 14 days off (14+/14−)). Gemcitabine was administered to the mice intraperitoneally (ip) q3d (every 3 days) using a 1 cc syringe and 26 gauge needle.
Weight loss was graphically represented as percent change in mean group body weight, using the formula: ((W−W0)/W0)×100, where ‘W’ represents mean body weight of the treated group at a particular day, and ‘W0’ represents mean body weight of the same treated group at initiation of treatment.

SMILES: CC(C)(C(=O)NCC(F)(F)C(F)(F)F)C(=O)N[C@@H]1C(=O)Nc2ccccc2-c2ccccc21 [Compound (1), 2,2-Dimethyl-N—((S)-6-oxo-6,7-dihydro-5H-dibenzo[b,d]azepin-7-yl)-N′-(2,2,3,3,3-pentafluoro-propyl)-malonamide]
- % TGI (H460a NSCLC xenografts; 3 mg/kg po qd, dosing ended early): 0%
- % TGI (H460a NSCLC xenografts; 10 mg/kg po qd, dosing ended early): 0%
- % TGI (H460a NSCLC xenografts; 30 mg/kg po qd × 7 days, not reinitiated): 0%
- % TGI (H460a NSCLC xenografts; 60 mg/kg po qd × 7 days, not reinitiated): 0%
- mice with >20% body weight loss deemed toxicity-related [1]: one
